We go through 2 compounds from patent US8853227B2, “Methotrexate adjuvants to reduce toxicity and methods for using the same” (Tosk, Incorporated, priority 2008, dated 2014).

A value given as a limit tells only on which side of the number the result lay.

The subject of data set [1] is UPase knockout (19519) Drosophila melanogaster. In words: Fly Study II, MTX lethality in UPase knockout flies. It counts as in vivo. The method, then:
(§1) Embryos of UPase knockout (19519) Drosophila melanogaster were orally exposed to a dose range of MTX doses in food admix. Embryos of Wild-type (Oregon-R) were orally exposed to the same dose range of MTX in presence and absence of 0.04 mg TK-112690. Scoring was based on life or death 15 days after initiation of MTX exposure. […] Wild-type D. melanogaster are sensitive to lethal effects of 0.1 mg MTX.
(§2) The aim of this study was to evaluate the lethal effects of a range (0.001, 0.01, 0.05, 0.1, 0.2, 0.4 mg) of doses of orally fed MTX in wild-type (Ore-R) and UPase mutant Drosophila melanogaster. Embryos of UPase knockout (19519) Drosophila melanogaster were orally exposed to a dose range of MTX (0.001, 0.01, 0.05, 0.1, 0.2, 0.4 mg) in food admix. Embryos of Wild-type (Oregon-R) were orally exposed to the same dose range of MTX in presence and absence of 0.04 mg TK-112690. Scoring was based on life or death 15 days after initiation of MTX exposure.

In data set [2] the test system is AS283 human lymphoma xenografts. In words: Mouse Study V (xenograft with AS283 implants). Type of data set: in vivo, C.B.-17 SCID mice. As to the method: Six-week-old male SCID mice were implanted with fragments of AS283 human lymphoma tumors. The tumors were allowed to reach 75-198 mg in weight (75-198 mm^3 in size) before the start of treatment. The experiment consisted of two treatment groups and one vehicle-treated control group, with ten animals per group, for a total of 30 mice on the first day of treatment.
TK-112690 was administered by ip injection [twice every 2 days for 5 injections with six hour interval (q6h×2, q2d×5)] at a dosage of 30 mg/kg/injection. MTX was administered by ip injection q2d×5 at a dosage of 5.0 mg/kg/injection three hours after the TK-112690 injection. The control group was treated with both vehicles, which were administered on the corresponding compound schedules.
Six-week-old male C.B.-17 SCID mice were acclimated in the laboratories for seven days prior to experimentation. Thirty-to-forty mg fragments of AS283 human lymphoma tumor were implanted sc in mice near the right flank using a 12-gauge trocar needle and allowed to grow. Tumors were allowed to reach 75-198 mg in weight (75-198 mm^3 in size) before the start of treatment. A sufficient number of mice were implanted so that tumors in a weight range as narrow as possible were selected for the trial on the day of treatment initiation (day 8 after tumor implantation). Those animals selected with tumors in the proper size range were assigned to the various treatment groups so that the median tumor weights on the first day of treatment were as close to each other as possible (162 mg for all groups). The experiment consisted of two treatment groups and one vehicle-treated control group with ten animals per group for a total of 30 mice on the first day of treatment.
A 15 mg/mL solution of TK-112690 was prepared daily by dissolving the compound in 100% DMSO (by vortexing as needed) and then adding PBS for a 3 mg/mL dosing solution. The final composition of the vehicle was 20% DMSO/80% PBS. The 25 mg/mL stock solution of MTX for injection was diluted each day of injection with saline to a 0.75 mg/mL dosing solution. Both compounds were administered ip by exact body weight using an injection volume of 0.1 mL for every 10 g of body weight.
TK-112690 was administered by intraperitoneal (ip) injection [twice every 2 days for 5 injections with six hour interval (q6h×2, q2d×5)] at a dosage of 30 mg/kg/injection. MTX was administered by intraperitoneal (ip) injection q2d×5 at a dosage of 5.0 mg/kg/injection three hours after the TK-112690 injection. The control group was treated with both vehicles, which were administered on the corresponding compound schedules.
The sc tumors were measured and the animals were weighed thrice weekly starting the day of the first treatment. Tumor volume was determined by caliper measurements (mm) and using the formula for an ellipsoid sphere: L×W^2/2=mm^3, where L and W refer to the larger and smaller perpendicular dimensions collected at each measurement. This formula is also used to calculate tumor weight, assuming unit density (1 mm^3=1 mg).
The study was terminated twenty one days after tumor implantation. Any animal found moribund or any animal whose tumor reached 4,000 mg, ulcerated or was sloughed off was euthanized prior to study termination.

Data set [3] is described as follows: Mouse Study II (protection from loss of mucosal permeability, oral iodixanol in plasma). Type of data set: in vivo, C57BI/6 female mice. Conditions: day 7. As to the method: C57BI/6 female mice (n=7) were treated intraperitoneal (ip) with 100 mg/kg MTX on days 2, 3 and 4 with and without 60 mg/kg TK-112690 (ip) three hours before, and after, MTX injections. On day 7, mucosal barrier injury was estimated by measuring plasma concentrations of orally administered iodixanol determined by HPLC using UV detection (Boxplots with minimum and maximum values (black lines). Orally administered iodixanol is not absorbed absent an increase in mucosal permeability. Group 1=saline control, Group 2=MTX and Group 3=MTX+TK-112690.
The aim of this study was to evaluate the ability of a representative a 2,2′-anhydropyrimidine test article to mitigate MTX-induced loss of mucosal permeability. C57BI/6 female mice (n=7) were treated (ip) with 100 mg/kg MTX on days 2, 3 and 4 with and without 60 mg/kg TK-112690 (ip) three hours before, and after, MTX injections. On day 7, mucosal barrier injury was estimated by measuring plasma concentrations of orally administered iodixanol determined by HPLC using UV detection. Orally administered iodixanol is not absorbed absent an increase in mucosal permeability.

Data set [4] can be described thus: Mouse Study III (infection study, WBC counts). Type of data set: in vivo, C57BL/6 mice. The settings on record: Day 11. The method, then:
C57BL/6 mice (n=10/dose group), treated i.p. 50 mg/kg MTX on Day 1, 2, 3, 4, 6 and 8 along with 60 mg/kg TK-112690 i.p. 3 hr±MTX followed by single daily doses TK-112690 on days not treated with MTX. On Day 11, the animals were sacrificed and hematology performed on the resulting blood. Group 1=saline control, Group 2=MTX control and Group 3=MTX+TK-112690.
For the study whose data are presented in FIG. 4, C57BL/6 mice (n=10/dose group) were treated i.p. with 50 mg/kg MTX on Day 1, 2, 3, 4, 6 and 8 along with 60 mg/kg TK-112690 i.p. 3 hr±MTX followed by single daily doses TK-112690 on days not treated with MTX. On Day 11, the animals were bled and hematology performed on the resulting blood samples. Following the hematology measurements, the animals were sacrificed.

Data set [5] concerns Wild-type (Oregon-R) Drosophila melanogaster. Kind of data set: Fly Study II, MTX lethality in wild-type flies. Type of data set: in vivo. The method, then: as §1, §2
[6] abbreviates: TK-112690 30 mg/kg/injection combined with MTX 5.0 mg/kg/injection, day 21.
[7] abbreviates: MTX alone 5.0 mg/kg/injection ip q2d×5, day 21.

With `Cc1cn2c(nc1=O)O[C@H]1[C@H](O)[C@@H](CO)O[C@H]12` [TK-112690, 2,2′-anhydro-5-methyluridine], the “added protection from methotrexate toxicities by TK-112690 in UPase mutant flies” value in data set [1] (UPase mutant flies, dose range of methotrexate) is “does not provide added protection”. In addition, in data set [2] (setting [6]), the “median tumor weight value smaller than the median at the start of treatment (162 mg)” value is on record as 9.0 mg and the “median tumor weight value smaller than the median at the start of treatment (162 mg), %” value was 5.6%. In addition, the “median tumor weight value, % of the control on day 21” value in data set [2] (TK-112690 30 mg/kg/injection ip (q6h×2, q2d×5) combined with MTX 5.0 mg/kg/injection) was found to be 3.5%. Moreover, in data set [2] (day 21, p=1.0), the “tumor volumes, MTX+TK-112690 versus MTX” value is listed as “no statistical difference”. Moreover, in data set [3] (60 mg/kg ip 3 h before and after 100 mg/kg MTX, days 2, 3, 4, p<0.05), the “protection from MTX-induced mucosal barrier injury (plasma concentration of orally administered iodixanol)” value is “protected mice from MTX-induced mucosal barrier injury”. In addition, the “protection from MTX-induced mucositis measured as prevention of WBC increase” value in data set [4] (60 mg/kg ip 3 hr ± MTX 50 mg/kg) is “protects from MTX-induced mucositis”. Also, the “sensitivity of wild-type flies to lethal effects of MTX in the presence of TK-112690” value in data set [5] (0.04 mg TK-112690, MTX 0.001-0.4 mg oral, 15 days) is “resistant to the lethal effects”. Besides, the “methotrexate dose from whose lethality TK-112690 protects” value in data set [5] (0.04 mg TK-112690, wild-type flies, 15 days) is at most 0.4 mg.

Regarding `CN(Cc1cnc2nc(N)nc(N)c2n1)c1ccc(C(=O)N[C@@H](CCC(=O)O)C(=O)O)cc1` [MTX, N-[4-[[(2,4-diamino-6-pteridinyl)methyl]methylamino]benzoyl]-L-glutamic acid, reference compound], in data set [1] (MTX 0.001-0.4 mg oral, 15 days), the “sensitivity of UPase knockout flies to lethal effects of MTX” value was “resistant to lethal effects”. Besides, in data set [2] (MTX alone 5.0 mg/kg/injection ip q2d×5), the “median tumor weight value, % of the control on day 21” value came out at 2.8%. In data set [2] (setting [7]), the “median tumor weight value smaller than the median at the start of treatment (162 mg)” value is recorded as 40.0 mg and the “median tumor weight value smaller than the median at the start of treatment (162 mg), %” value amounted to 24.7%. In addition, in data set [3] (100 mg/kg MTX ip on Days 2, 3 and 4), the “mucosal barrier injury (increased plasma iodixanol)” value is on record as “experienced mucosal barrier injury”. For the same compound, the “systemic WBC level” value in data set [4] (50 mg/kg MTX ip Day 1, 2, 3, 4, 6, 8, p<0.02 vs saline or MTX+TK-112690) is “increases systemic WBC”. Also, the “MTX dose lethal to wild-type flies” value in data set [5] (oral in food admix, 15 days after initiation of MTX exposure) is listed as 0.1 mg.
